In ChEMBL document CHEMBL4834484, “Identification of isoform/domain-selective fragments from the selection of DNA-encoded dynamic library” (Bioorg Med Chem, 2021):
pIC50, pKd, pKi: −log10 of the molar value.

Tests used:
[1] = target: T1, NAD-dependent protein deacetylase sirtuin-1 (Homo sapiens, UniProt Q96EB6); assay: Inhibition of human recombinant SIRT1 assessed as inhibition of substrate deacetylation using Gln-Pro-Lys-Lys- (epsilon acetyl) AMC peptide as substrate in presence of NAD+ measured by fluorescence based analysis
T1 sequence (Q96EB6 whole entry): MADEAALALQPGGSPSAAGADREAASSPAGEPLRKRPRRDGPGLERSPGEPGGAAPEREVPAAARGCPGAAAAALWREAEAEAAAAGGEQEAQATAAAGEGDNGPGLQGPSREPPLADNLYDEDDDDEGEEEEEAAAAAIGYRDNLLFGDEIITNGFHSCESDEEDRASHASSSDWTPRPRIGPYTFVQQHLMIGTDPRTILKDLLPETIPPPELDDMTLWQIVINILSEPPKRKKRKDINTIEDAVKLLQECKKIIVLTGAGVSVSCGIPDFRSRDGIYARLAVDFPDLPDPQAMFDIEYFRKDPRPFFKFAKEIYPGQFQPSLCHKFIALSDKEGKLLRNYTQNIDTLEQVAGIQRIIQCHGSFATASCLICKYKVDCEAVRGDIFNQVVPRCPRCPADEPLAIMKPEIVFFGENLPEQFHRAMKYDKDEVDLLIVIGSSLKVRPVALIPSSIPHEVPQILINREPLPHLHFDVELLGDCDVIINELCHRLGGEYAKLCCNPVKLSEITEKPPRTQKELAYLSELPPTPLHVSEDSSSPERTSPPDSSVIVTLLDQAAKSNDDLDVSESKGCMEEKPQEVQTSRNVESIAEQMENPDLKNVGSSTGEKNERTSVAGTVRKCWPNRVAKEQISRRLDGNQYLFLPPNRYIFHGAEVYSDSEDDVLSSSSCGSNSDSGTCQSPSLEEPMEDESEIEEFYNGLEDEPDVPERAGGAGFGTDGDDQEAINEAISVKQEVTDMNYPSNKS

[2] = target: T2, Bromodomain-containing protein 4 (Homo sapiens, UniProt O60885); assay: Displacement of SGRG-K(Ac)-GG-K(Ac)-GLG-K(Ac)-GGA-K(Ac)-RHRKVGG-K(Biotin) from Europium chelated human BRD4 bromodomain 2 (342 to 460 residues) measured after 2 hrs by TR-FRET assay
[3] = target: T2, Bromodomain-containing protein 4; assay: Displacement of SGRG-K(Ac)-GG-K(Ac)-GLG-K(Ac)-GGA-K(Ac)-RHRKVGG-K(Biotin) from Europium chelated human BRD4 bromodomain 1 (49 to 170 residues) measured after 2 hrs by TR-FRET assay
[4] = target: T3, NAD-dependent protein deacetylase sirtuin-2 (Homo sapiens, UniProt Q8IXJ6); assay: Inhibition of human recombinant SIRT2 assessed as inhibition of substrate deacetylation using Gln-Pro-Lys-Lys- (epsilon acetyl) AMC peptide as substrate in presence of NAD+ measured by fluorescence based analysis
T3 sequence (Q8IXJ6 whole entry): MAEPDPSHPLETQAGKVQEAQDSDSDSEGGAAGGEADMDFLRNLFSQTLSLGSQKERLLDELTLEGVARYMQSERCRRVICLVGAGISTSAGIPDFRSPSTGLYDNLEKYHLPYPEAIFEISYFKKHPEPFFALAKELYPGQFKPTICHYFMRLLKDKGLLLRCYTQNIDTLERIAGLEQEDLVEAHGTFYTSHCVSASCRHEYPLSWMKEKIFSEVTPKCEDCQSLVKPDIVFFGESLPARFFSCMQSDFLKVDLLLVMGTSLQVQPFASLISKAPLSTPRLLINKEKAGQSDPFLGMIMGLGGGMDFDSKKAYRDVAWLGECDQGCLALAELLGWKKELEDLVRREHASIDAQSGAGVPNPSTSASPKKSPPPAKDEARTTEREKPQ

[5] = target: T3, NAD-dependent protein deacetylase sirtuin-2; assay: Binding affinity to chip-immobilized recombinant human SIRT2 measured after 300 secs by surface plasmon resonance method
[6] = target: T1, NAD-dependent protein deacetylase sirtuin-1; assay: Binding affinity to chip-immobilized recombinant human SIRT1 measured after 300 secs by surface plasmon resonance method
[7] = target: T4, NAD-dependent protein deacetylase sirtuin-3, mitochondrial (Homo sapiens, UniProt Q9NTG7); assay: Inhibition of human recombinant SIRT3 assessed as inhibition of substrate deacetylation using Gln-Pro-Lys-Lys- (epsilon acetyl) AMC peptide as substrate in presence of NAD+ measured by fluorescence based analysis
T4 sequence (Q9NTG7 whole entry): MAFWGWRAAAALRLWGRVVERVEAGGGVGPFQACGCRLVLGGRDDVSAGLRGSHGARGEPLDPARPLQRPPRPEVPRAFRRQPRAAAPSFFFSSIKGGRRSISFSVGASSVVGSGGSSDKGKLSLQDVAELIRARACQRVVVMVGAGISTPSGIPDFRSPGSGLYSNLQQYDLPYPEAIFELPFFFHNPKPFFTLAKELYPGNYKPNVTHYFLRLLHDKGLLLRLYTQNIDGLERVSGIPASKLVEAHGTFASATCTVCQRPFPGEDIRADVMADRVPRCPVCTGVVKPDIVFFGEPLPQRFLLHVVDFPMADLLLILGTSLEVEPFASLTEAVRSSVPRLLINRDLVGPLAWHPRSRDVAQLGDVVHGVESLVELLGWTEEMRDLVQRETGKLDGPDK

[8] = target: T4, NAD-dependent protein deacetylase sirtuin-3, mitochondrial; assay: Binding affinity to chip-immobilized recombinant human SIRT3 measured after 300 secs by surface plasmon resonance method
[9] = target: T5, NAD-dependent protein deacylase sirtuin-5, mitochondrial (Homo sapiens, UniProt Q9NXA8); assay: Binding affinity to chip-immobilized recombinant human SIRT5 measured after 300 secs by surface plasmon resonance method
[10] = target: T5, NAD-dependent protein deacylase sirtuin-5, mitochondrial; assay: Inhibition of human recombinant SIRT5 assessed as inhibition of substrate desuccinylation using Fluor de Lys-Succinyl green peptide as substrate in presence of NAD+ measured by fluorometric assay

T5 sequence (Q9NXA8 whole entry): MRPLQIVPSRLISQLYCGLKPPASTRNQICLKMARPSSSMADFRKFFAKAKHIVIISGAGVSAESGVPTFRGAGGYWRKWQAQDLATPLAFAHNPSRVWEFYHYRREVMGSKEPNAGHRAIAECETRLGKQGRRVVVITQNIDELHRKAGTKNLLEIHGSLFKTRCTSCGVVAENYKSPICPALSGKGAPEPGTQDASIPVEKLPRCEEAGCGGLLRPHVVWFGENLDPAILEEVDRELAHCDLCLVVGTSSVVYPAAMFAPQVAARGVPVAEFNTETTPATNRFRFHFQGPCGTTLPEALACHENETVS

Structure (SMILES) | pIC50 [4] | pKi [4] | further results
O=C1CC(C(=O)NCc2ccc(CNCC(=O)C3CC4CCC3C4)cc2)c2ccccc21 (stereo not given) |  |  | pIC50 [1]: 3.71; pKi [1]: 3.92
CC1COc2c(N3CCN(C)CC3)c(F)cc3c(=O)c(C(=O)N(C)CCCN4c5ccccc5CCc5ccccc54)cn1c23 (stereo not given) |  |  | pIC50 [2]: 4.39; pIC50 [3]: 3.64
CC1COc2c(N3CCN(C)CC3)c(F)cc3c(=O)c(C(=O)NCCOCCOCCNC(=O)c4cn5c6c(c(N7CCN(C)CC7)c(F)cc6c4=O)OCC5C)cn1c23 (stereo not given) | 3.42 | 3.95 | 
COc1cc(CC(=O)NCCOCCOCCOCCNC(=O)c2cn3c4c(c(N5CCN(C)CC5)c(F)cc4c2=O)OCC3C)cc(OC)c1OC (stereo not given) | 5.15 | 5.70 | pKd [5]: 5.15
COc1cc(CC(=O)NCCOCCOCCNC(=O)c2cccc(-c3cccnc3)c2)cc(OC)c1OC | 4.01 | 4.55 | 
COc1cc(CC(=O)NCCCCCCNC(=O)c2cccc(-c3cccnc3)c2)cc(OC)c1OC | 4.36 | 4.89 | pKd [5]: 4.36; pKd [6]: 3.86; pKi [1]: 4.07; pKi [7]: 3.45; pKd [8]: 3.31
CC1COc2c(N3CCN(C)CC3)c(F)cc3c(=O)c(C(=O)NCCOCCOCCNC(=O)CCc4nc(-c5ccncc5)no4)cn1c23 (stereo not given) | 3.73 | 4.27 | 
O=C1CC(C(=O)NCCOCCOCCNCC(=O)C2CC3CCC2C3)c2ccccc21 (stereo not given) |  |  | pIC50 [1]: 3.53; pKi [1]: 3.74
CC1COc2c(N3CCN(C)CC3)c(F)cc3c(=O)c(C(=O)NCCCCCCNC(=O)CCc4nc(-c5ccncc5)no4)cn1c23 (stereo not given) | 3.97 | 4.51 | 
COc1cc(CC(=O)NCCCCCCNC(=O)c2cn3c4c(c(N5CCN(C)CC5)c(F)cc4c2=O)OCC3C)cc(OC)c1OC (stereo not given) | 4.48 | 5.05 | pKd [5]: 4.48
COc1cc(CC(=O)NCCCNC(=O)c2cn3c4c(c(N5CCN(C)CC5)c(F)cc4c2=O)OCC3C)cc(OC)c1OC (stereo not given) | 4.41 | 4.96 | pKd [5]: 4.41
CC1COc2c(N3CCN(C)CC3)c(F)cc3c(=O)c(C(=O)NCCCNC(=O)CCc4nc(-c5ccncc5)no4)cn1c23 (stereo not given) | 4.28 | 4.82 | 
O=C1CC(C(=O)NCCOCCOCCOCCNCC(=O)C2CC3CCC2C3)c2ccccc21 (stereo not given) |  |  | pIC50 [1]: 2.98; pKi [1]: 3.19
CSCC(=O)N(C)CCCN1c2ccccc2CCc2ccccc21 |  |  | pIC50 [2]: 3.82; pIC50 [3]: 2.88
O=C(NCCOCCOCCOCCNC(=O)c1cccc(-c2cccnc2)c1)c1cccc(-c2cccnc2)c1 | 4.66 | 5.22 | pKd [5]: 4.66; pKd [6]: 4.25; pKi [1]: 4.46; pKi [7]: 3.67; pKd [8]: 3.53
COc1cc(CC(=O)NCCOCCOCCNC(=O)c2cn3c4c(c(N5CCN(C)CC5)c(F)cc4c2=O)OCC3C)cc(OC)c1OC (stereo not given) | 4.49 | 5.05 | pKd [5]: 4.49
O=C(NCCOCCOCCNC(=O)c1cccc(-c2cccnc2)c1)c1cccc(-c2cccnc2)c1 | 4.00 | 4.54 | 
CN(CCCN1c2ccccc2CCc2ccccc21)C(=O)CCCCCNC(=O)C[C@@H](Cc1ccccc1)NC(=O)OC(C)(C)C |  |  | pKd [9]: 5.61; pIC50 [10]: 3.74; pKi [10]: 3.91
COc1cc(CC(=O)NCCOCCOCCOCCNC(=O)c2cccc(-c3cccnc3)c2)cc(OC)c1OC | 4.03 | 4.57 | 
O=C1CC(C(=O)NCCCNCC(=O)C2CC3CCC2C3)c2ccccc21 (stereo not given) |  |  | pIC50 [1]: 3.48; pKi [1]: 3.69
CC1COc2c(N3CCN(C)CC3)c(F)cc3c(=O)c(C(=O)NCCCCCC(=O)N(C)CCCN4c5ccccc5CCc5ccccc54)cn1c23 (stereo not given) |  |  | pIC50 [2]: 4.52; pIC50 [3]: 3.97
CNC(=O)CSC |  |  | pIC50 [2]: 2.94
CC1COc2c(N3CCN(C)CC3)c(F)cc3c(=O)c(C(=O)NCCCNC(=O)c4cn5c6c(c(N7CCN(C)CC7)c(F)cc6c4=O)OCC5C)cn1c23 (stereo not given) | 3.52 | 4.06 | 
CC1COc2c(N3CCN(C)CC3)c(F)cc3c(=O)c(C(=O)NCCOCCOCCOCCNC(=O)CCc4nc(-c5ccncc5)no4)cn1c23 (stereo not given) | 4.62 | 5.15 | pKd [5]: 4.62
CC1COc2c(N3CCN(C)CC3)c(F)cc3c(=O)c(C(=O)NCCOCCOCCOCCNC(=O)c4cn5c6c(c(N7CCN(C)CC7)c(F)cc6c4=O)OCC5C)cn1c23 (stereo not given) | 3.50 | 4.04 | 
CSCC(=O)NCCCCCC(=O)N(C)CCCN1c2ccccc2CCc2ccccc21 |  |  | pIC50 [2]: 3.64; pIC50 [3]: 3.01
CNC(=O)c1cn2c3c(c(N4CCN(C)CC4)c(F)cc3c1=O)OCC2C (stereo not given) |  |  | pIC50 [2]: 3.49; pIC50 [3]: 2.95

Second part, led by results:

pIC50 [4] | pKi [4] | Structure (SMILES) | further results
3.52 | 4.06 | COc1cc(CC(=O)NCCCNC(=O)c2cccc(-c3cccnc3)c2)cc(OC)c1OC | 
3.73 | 4.27 | CC1COc2c(N3CCN(C)CC3)c(F)cc3c(=O)c(C(=O)NCc4ccc(CNC(=O)c5cn6c7c(c(N8CCN(C)CC8)c(F)cc7c5=O)OCC6C)cc4)cn1c23 (stereo not given) | 
4.04 | 4.59 | O=C(NCc1ccc(CNC(=O)c2cccc(-c3cccnc3)c2)cc1)c1cccc(-c2cccnc2)c1 | 
3.71 | 4.25 | CC1COc2c(N3CCN(C)CC3)c(F)cc3c(=O)c(C(=O)NCc4ccc(CNC(=O)CCc5nc(-c6ccncc6)no5)cc4)cn1c23 (stereo not given) | 
4.60 | 5.15 | COc1cc(CC(=O)NCc2ccc(CNC(=O)c3cccc(-c4cccnc4)c3)cc2)cc(OC)c1OC | pKd [5]: 4.60; pKi [7]: 3.55; pKd [8]: 3.41
3.01 | 3.54 | COc1cc(CC(=O)NCc2ccc(CNC(=O)c3cn4c5c(c(N6CCN(C)CC6)c(F)cc5c3=O)OCC4C)cc2)cc(OC)c1OC (stereo not given) | 
3.03 | 3.57 | O=C1CC(C(=O)NCCCCCCNCC(=O)C2CC3CCC2C3)c2ccccc21 (stereo not given) | pIC50 [1]: 4.11; pKi [1]: 4.32; pIC50 [7]: 3.21; pKi [7]: 3.35
4.41 | 4.92 | O=C(NCCCCCCNC(=O)c1cccc(-c2cccnc2)c1)c1cccc(-c2cccnc2)c1 | pKd [5]: 4.40; pKd [6]: 3.93; pKi [1]: 4.14
